The values that follow come from patent US12558428B2, “Heterobifunctional compounds and their use in treating disease” (Halda Therapeutics OpCo, Inc., priority 2024, dated 2026).

What all share (assay type): cell-based
Assay [1] concerns T-Rex 293 cells having increased expression of estrogen receptor alpha protein. Nature of the assay: Cellular growth inhibition assay, T-Rex 293 cells, (+) doxycycline. To be noted: T-REx-293, 72 h, 72 hours. The method in brief:
(§1)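 Growth of a doxycycline-inducible ERα T-Rex 293 clone, induced or not with 3 ng/mL doxycycline, was followed for 72 h with test compound in hormone-depleted medium. CellTiter-Glo luminescence gave GI50.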

For assay [2], the system named is T-Rex 293 cells lacking increased expression of estrogen receptor alpha protein. Nature of the assay: Cellular growth inhibition assay, T-Rex 293 cells, (−) doxycycline. To be noted: T-REx-293, 72 h, 72 hours. The method in brief: as §1
Assay [3] has as its system MCF7 cells (ATCC #HTB-22). Nature of the assay: Cellular growth inhibition assay, MCF7 cells purchased from ATCC. Conditions: Homo sapiens, MCF7, 144 h, Table 8-A; MCF7 cells purchased from ATCC; six days; CellTiter-Glo; read-out: GI50. The method in brief:
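GI50 values come from a four-parameter fit of CellTiter-Glo 2.0 luminescence after six days of compound exposure at 37° C. Seeding density depended on the source: 225 cells/well for ECACC MCF7, 1,500 for ATCC. Medium was RPMI 1640 with 10% FBS and 0.2 U/ml insulin.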

The mark [4] stands for this setting: Table 7-A, T-Rex 293 cells with doxycycline (increased ERα expression), CellTiter-Glo, read-out: (+) Dox GI50.
The mark [5] stands for this setting: Table 7-A, T-Rex 293 cells without doxycycline (lacking increased ERα expression), CellTiter-Glo, read-out: (−) Dox GI50.

Where two headings read alike, the source gives them in different places. Bounds are passed on as bounds.

On to `CCN(Cc1ccc(CCN2CC[C@@H](OCCOCCOc3ccc(C4=N[C@@H](C)c5nnc(C)n5-c5sc(C)c(C)c54)cc3)C2)cc1)c1cc(OC)ccc1C1CCc2cc(O)ccc2C1` (stereo partly drawn) [I-34a, (R)-6-(2-(ethyl(4-(2-((R)-3-(2-(2-(4-((S)-2,3,6,9-tetramethyl-6H-thieno[3,2-f][1,2,4]triazolo[4,3-a][1,4]diazepin-4-yl)phenoxy)ethoxy)ethoxy)pyrrolidin-1-yl)ethyl)benzyl)amino)-4-methoxyphenyl)-5,6,7,8-tetrahydronaphthalen-2-ol], for which the GI50 lay in the range of 50 to 500 nM in assay [1] (setting [4]), 500 to 2500 nM in assay [2] (setting [5]) and 50 to 500 nM in assay [3].

For the molecule `CC1=C(c2c(F)cc(F)cc2F)[C@H](c2ccc(OCCN3CCC[C@@]4(CCN(c5ccc(C6=N[C@@H](C)c7nnc(C)n7-c7sc(C)c(C)c76)cc5)C4)C3)cc2)Oc2ccc(O)cc21` [V-8], the GI50 is less than 50 nM in assay [1] (setting [4]), 500 to 2500 nM in assay [2] (setting [5]) and 50 to 500 nM in assay [3].

As for `Cc1sc2c(c1C)C(c1ccc(NCCC3CCCN(CCOc4ccc([C@@H]5c6ccc(O)cc6CC[C@@H]5c5ccccc5)cc4)C3)cc1)=NC(Cc1ncco1)c1nnc(C)n1-2` (stereo partly drawn) [III-45], the figures for the GI50 in assay [1] (setting [4]), in assay [2] (setting [5]) and in assay [3] were less than 50 nM, 50 to 500 nM and 50 to 500 nM, respectively.

In the case of `Cc1sc2c(c1C)C(c1ccc(OCCOCCCN3CC(Nc4ccc([C@@H]5c6ccc7n[nH]cc7c6C[C@@H](C)N5CC(F)(F)F)nc4)C3)cc1)=N[C@@H](C)c1nnc(C)n1-2` [I-57], the concentration for 50% growth inhibition (GI50) in assay [1] (setting [4]) was less than 50 nM; in assay [2] (setting [5]), 500 to 2500 nM; in assay [3] it was less than 50 nM.

Consider `Cc1sc2c(c1C)C(c1ccc(N3CCC(CN4CCN(c5cc(F)c([C@H]6c7ccc(O)cc7CC[C@H]6c6ccccc6)cc5F)CC4)CC3)cc1)=N[C@@H](C)c1nnc(C)n1-2` [III-318], for which the GI50 in assay [1] (setting [4]), in assay [2] (setting [5]) and in assay [3] was 50 to 500 nM in each case.

Turning to `Cc1sc2c(c1C)C(c1ccc(N3CC(CN4CCN(C(=O)C5CN(c6ccc([C@@H]7c8ccc(O)cc8CC[C@@H]7c7ccccc7)cc6)C5)CC4)C3)cc1)=N[C@@H](Cc1ncco1)c1nnc(C)n1-2` [III-179], the GI50 in assay [1] (setting [4]), in assay [2] (setting [5]) and in assay [3] was less than 50 nM throughout.

For `Cc1sc2c(c1C)C(c1ccc(N3CCC(O)(CN4CCN(c5cc(F)c([C@@H]6c7ccc(O)cc7CC[C@@H]6c6ccccc6)c(F)c5)CC4)CC3)cc1)=N[C@@H](Cc1ncco1)c1nnc(C)n1-2` [III-196], the GI50 in assay [1] (setting [4]) is less than 50 nM; in assay [2] (setting [5]) it was 50 to 500 nM; in assay [3] it was less than 50 nM.

With `Cc1sc2c(c1C)C(c1ccc(N3CCC(O)(CN4CCN(c5cc(F)c([C@@H]6c7ccc(O)cc7CC[C@@H]6c6ccccc6)cc5F)CC4)CC3)cc1)=N[C@@H](Cc1ncco1)c1nnc(C)n1-2` [III-299], the concentration for 50% growth inhibition (GI50) is less than 50 nM in assay [1] (setting [4]), 50 to 500 nM in assay [2] (setting [5]) and less than 50 nM in assay [3].

Turning to `Cc1sc2c(c1C)C(c1ccc(N3CCC(O)(CN4CCN(c5ccc(C6=C(c7ccc(Cl)cc7Cl)CCCc7cc(C(=O)O)ccc76)cc5)CC4)CC3)cc1)=N[C@H](C)c1nnc(C)n1-2` [IV-15], the GI50 in assay [1] (setting [4]) was more than 2500 nM; in assay [2] (setting [5]) it was more than 2500 nM; in assay [3], 500 to 2500 nM.

As for `Cc1sc2c(c1C)C(c1ccc(N3CCC(O)(CN4CCN(c5ccc([C@H]6c7ccc(O)cc7CC[C@H]6c6ccccc6)nn5)CC4)CC3)cc1)=N[C@H](Cc1ncco1)c1nnc(C)n1-2` [III-224], the GI50 was more than 2500 nM in assay [1] (setting [4]), more than 2500 nM in assay [2] (setting [5]) and 50 to 500 nM in assay [3].

For the molecule `Cc1sc2c(c1C)C(c1ccc(N3CCC4(CCN(CC5CCC(c6ccc([C@@H]7c8ccc(O)cc8CC[C@@H]7c7ccccc7)cc6)CC5)C4)CC3)cc1)=N[C@@H](C)c1nnc(C)n1-2` (stereo partly drawn) [III-191], the GI50 in assay [1] (setting [4]) is less than 50 nM; in assay [2] (setting [5]) it was 50 to 500 nM; in assay [3] it was 50 to 500 nM.

As for `Cc1sc2c(c1C)C(c1ccc(OC3CCN(CC4CCN(c5ccc([C@@H]6c7ccc(O)cc7CC[C@@H]6c6ccccc6)cc5)CC4)CC3)cc1)=N[C@@H](C)c1nnc(C)n1-2` [III-86], the values for the GI50 in assay [1] (setting [4]), in assay [2] (setting [5]) and in assay [3] were 50 to 500 nM, 500 to 2500 nM and 50 to 500 nM, respectively.

For the molecule `Cc1sc2c(c1C)C(c1ccc(N3CCC(O)(CN4CCN(c5ccc([C@H]6c7ccc(C(=O)O)cc7CC[C@H]6c6ccc(F)cc6F)cc5)CC4)CC3)cc1)=N[C@@H](C)c1nnc(C)n1-2` [III-205], the GI50 in assay [1] (setting [4]) lay within 50 to 500 nM; in assay [2] (setting [5]) it was 500 to 2500 nM; in assay [3], 50 to 500 nM.

`Cc1cc(N2CCC(O)(CN3CCN(c4cc(F)c([C@H]5c6ccc(O)cc6CC[C@H]5c5ccccc5)cc4F)CC3)CC2)ccc1Oc1ccc(C(C)(C)O)cc1-c1cn(C)c(=O)c2[nH]ccc12` [V-38]: the GI50 lay in the range of 50 to 500 nM in assay [1] (Table 7-B, T-Rex 293 cells with doxycycline (increased ERα expression), CellTiter-Glo, read-out: (+) Dox GI50); 50 to 500 nM in assay [2] (Table 7-B, T-Rex 293 cells without doxycycline (lacking increased ERα expression), CellTiter-Glo, read-out: (−) Dox GI50); 50 to 500 nM in assay [3].

Take `Cc1sc2c(c1C)C(c1ccc(N3CCN(CC4CCN(c5ncc([C@H]6c7ccc(O)cc7CC[C@H]6c6ccccc6)cn5)CC4)CC3)cc1)=N[C@@H](Cc1ncco1)c1nnc(C)n1-2` [III-127]: the GI50 fell in the range of 50 to 500 nM in assay [1] (setting [4]), 500 to 2500 nM in assay [2] (setting [5]) and 50 to 500 nM in assay [3].

As to `CCN(CCCCNC(=O)C[C@@H]1N=C(c2ccc(Cl)cc2)c2c(sc(C)c2C)-n2c(C)nnc21)CCOc1ccc(C(=O)c2c(-c3ccc(O)cc3)sc3cc(O)ccc23)cc1` [I-1, (S)-2-(4-(4-chlorophenyl)-2,3,9-trimethyl-6H-thieno[3,2-f][1,2,4]triazolo[4,3-a][1,4]diazepin-6-yl)-N-(4-(ethyl(2-(4-(6-hydroxy-2-(4-hydroxyphenyl)benzo[b]thiophene-3-carbonyl)phenoxy)ethyl)amino)butyl) acetamide], the GI50 was 50 to 500 nM in assay [1] (T-Rex 293 cells with doxycycline-induced ERα expression, CellTiter-Glo 2.0, read-out: (+) Dox TRex ERa (GI50)); 50 to 500 nM in assay [2] (T-Rex 293 cells without doxycycline, CellTiter-Glo 2.0, read-out: (−) Dox TRex ERa (GI50)); 50 to 500 nM in assay [3].

On to `Cc1sc2c(c1C)C(c1ccc(N3CCC(O)(CN4CCN(c5cc(F)c([C@@H]6c7ccc(O)cc7CC[C@@H]6c6ccccc6)c(F)c5)CC4)CC3)cc1)=N[C@@H](C)c1nnc(C)n1-2` [III-186], for which the GI50 in assay [1] (setting [4]) was less than 50 nM; in assay [2] (setting [5]) it was 500 to 2500 nM; in assay [3], less than 50 nM.

On to `CC1=C(c2c(F)cc(F)cc2F)[C@H](c2ccc(N3CCN(CC4CCN(c5ccc(C6=N[C@H](C)c7nnc(C)n7-c7sc(C)c(C)c76)cc5)CC4)CC3)cc2)Oc2ccc(O)cc21` [V-24], for which the GI50 in assay [1] (setting [4]), in assay [2] (setting [5]) and in assay [3] was more than 2500 nM throughout.

Regarding `Cc1sc2c(c1C)C(c1ccc(N3CCC(O)(CN4CCN(c5ccc([C@H]6c7ccc(O)cc7CC[C@H]6c6ccccc6F)c(F)c5)CC4)CC3)cc1)=N[C@@H](C)c1nnc(C)n1-2` [III-292], the 50% growth inhibitory concentration (GI50) in assay [1] (setting [4]), in assay [2] (setting [5]) and in assay [3] was 50 to 500 nM throughout.

Turning to `Cc1sc2c(c1C)C(c1ccc(N3CC(F)(CN4CCC(CC5CN(c6ccc([C@@H]7c8ccc(O)cc8CC[C@@H]7c7ccccc7)cc6)C5)CC4)C3)cc1)=N[C@@H](C)c1nnc(C)n1-2` [III-157], the 50% growth inhibitory concentration (GI50) in assay [1] (setting [4]) is less than 50 nM; in assay [2] (setting [5]) it was 500 to 2500 nM; in assay [3], 50 to 500 nM.

For `Cc1sc2c(c1C)C(c1ccc(N[C@H]3CCN(CCOc4ccc([C@@H]5c6ccc(O)cc6CC[C@@H]5c5ccccc5)cc4)C[C@@H]3F)cc1)=NC(Cc1ncco1)c1nnc(C)n1-2` (stereo partly drawn) [III-46], the GI50 in assay [1] (setting [4]), in assay [2] (setting [5]) and in assay [3] was less than 50 nM each time.

The GI50 is the concentration that inhibits growth by half.
